Test results published in patent US12545685B2 (Daiichi Sankyo Company, Limited, priority 2011, dated 2026).

These molecules were tested against T1, Mdm2/p53 binding (GST-Mdm2 / His-p53) (Homo sapiens, UniProt Q00987, L33E) (assay: Mdm2/p53 binding assay (HTRF, His-p53 and GST-Mdm2)). Settings: His-p53 (aa 1-132) and GST-Mdm2 (aa 25-108, L33E) 6.25 nM each; 25°C, 1 hour; values given as ranges.
T1 construct: Mdm2 partial protein having Mdm2 amino acids at positions 25 to 108
How it was run: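 Binding was detected by HTRF (ex 320 nm, em 620/665 nm) after 1 h at 25 °C, using Eu-cryptate anti-GST and XL665 anti-His antibodies. The protein pair was GST-Mdm2 (residues 25–108, L33E) with His-p53 (residues 1–132), each 6.25 nM in the protein dilution. T/C used no-compound control and no-p53 background, and IC50 came from sigmoid fitting.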

T1 sequence (Q00987 25-108 L33E): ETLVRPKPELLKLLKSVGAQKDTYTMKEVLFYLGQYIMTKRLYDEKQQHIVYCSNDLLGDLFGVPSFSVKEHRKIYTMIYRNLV

Compound | IC50 [nM]
CC1(C)CCC2(CC1)N[C@@H](C(=O)N[C@H]1CC[C@H](c3nnco3)CC1)[C@H](c1ccnc(Cl)c1F)[C@]21C(=O)Nc2cc(Cl)ncc21 (relative stereo) [Example 190] | 50 to 100
C[C@@H](O)c1nnc([C@H]2CC[C@H](NC(=O)[C@@H]3NC4(CCC(C)(C)CC4)[C@@]4(C(=O)Nc5cc(Cl)ccc54)[C@H]3c3ccnc(Cl)c3F)CC2)o1 [Example 132, (3′R, 4′S, S′R)-6″-chloro-4′-(2-chloro-3-fluoropyridin-4-yl)-N-(trans-4-{5-[(1R)-1-hydroxyethyl]-1,3,4-oxadiazol-2-yl}cyclohexyl)-4,4-dimethyl-2″-oxo-1″,2″-dihydrodispiro[cyclohexane-1,2′-pyrrolidine-3′,3″-indole]-5′-carboxamide] | 50 to 100
CNC(=O)C[C@@H]1CC[C@@H](NC(=O)[C@@H]2NC3(CCC(C)(C)CC3)[C@@]3(C(=O)Nc4cc(Cl)ccc43)[C@H]2c2ccnc(Cl)c2F)CO1 [Example 150, (3′R, 4′S,5′R)-6″-chloro-4′-(2-chloro-3-fluoropyridin-4-yl)-4,4-dimethyl-N-{(3R,6S)-6-[2-(methylamino)-2-oxoethyl]tetrahydro-2H-pyran-3-yl}-2″-oxo-1″,2″-dihydrodispiro[cyclohexane-1,2′-pyrrolidine-3′,3″-indole]-5′-carboxamide] | 1 to 50
CN(C)C(=O)[C@@H]1CC[C@@H](NC(=O)[C@@H]2NC3(CC(CF)(CF)C3)[C@@]3(C(=O)Nc4cc(Cl)ccc43)[C@H]2c2ccnc(Cl)c2F)CO1 [Example 167, (3′R, 4′S,5′R)-6″-chloro-4′-(2-chloro-3-fluoropyridin-4-yl)-N-[(3R,6S)-6-(dimethylcarbamoyl)tetrahydro-2H-pyran-3-yl]-3,3-bis(fluoromethyl)-2″-oxo-1′″, 2′″-dihydrodispiro[cyclobutane-1,2′-pyrrolidine-3′,3″-indole]-5″-carboxamide] | 1 to 50
COC[C@]1(O)CC[C@@H](NC(=O)[C@@H]2NC3(CCC(C)(C)CC3)[C@@]3(C(=O)Nc4cc(Cl)ccc43)[C@H]2c2ccnc(Cl)c2F)CC1 [Example 61, (3′R, 4′S,5′R)-6″-chloro-4′-(2-chloro-3-fluoropyridin-4-yl)-N-[cis-4-hydroxy-4-(methoxymethyl)cyclohexyl]-4,4-dimethyl-2″-oxo-1″,2″-dihydrodispiro[cyclohexane-1,2′-pyrrolidine-3′,3″-indole]-5′-carboxamide] | 50 to 100
CO[C@]1(CO)CC[C@@H](NC(=O)[C@@H]2NC3(CCC(C)(C)CC3)[C@@]3(C(=O)Nc4cc(Cl)ccc43)[C@H]2c2cccc(Cl)c2F)CC1 [Example 74, (3′R, 4′S,5′R)-6″-chloro-4′-(3-chloro-2-fluorophenyl)-N-[trans-4-(hydroxymethyl)-4-methoxycyclohexyl]-4,4-dimethyl-2″-oxo-1″,2″-dihydrodispiro[cyclohexane-1,2′-pyrrolidine-3′,3″-indole]-5′-carboxamide] | 50 to 100
CC1(C)CCC2(CC1)N[C@@H](C(=O)N[C@H]1CC[C@H](O)CC1)[C@H](c1cc(N)cc(Cl)c1)[C@]21C(=O)Nc2cc(Cl)ccc21 (relative stereo) [Example 36, (3′R, 4′R, 5′R)-4′-(3-amino-5-chlorophenyl)-6″-chloro-N-(trans-4-hydroxycyclohexyl)-4,4-dimethyl-2″-oxo-1″,2″-dihydrodispiro[cyclohexane-1,2′-pyrrolidine-3′,3″-indole]-5′-carboxamide] | 1 to 50
CN(C)C(=O)[C@H]1C[C@H](NC(=O)[C@@H]2NC3(CC(CF)(CF)C3)[C@@]3(C(=O)Nc4cc(Cl)ccc43)[C@H]2c2cccc(Cl)c2F)C1 [Example 145, (3′R, 4′S,5′R)-6″-chloro-4′-(3-chloro-2-fluorophenyl)-N-[trans-3-(dimethylcarbamoyl)cyclobutyl]-3,3-bis(fluoromethyl)-2″-oxo-1″,2″-dihydrodispiro[cyclobutane-1,2′-pyrrolidine-3′,3″-indole]-5′-carboxamide] | 50 to 100
CN(C)C(=O)[C@@H]1CC[C@@H](NC(=O)[C@@H]2NC3(CCC(C)(C)CC3)[C@@]3(C(=O)Nc4nc(Cl)ccc43)[C@H]2c2ccnc(Cl)c2F)CO1 [Example 104, (3′R, 4′S,5′R)-6″-chloro-4′-(2-chloro-3-fluoropyridin-4-yl)-N-[(3R,6S)-6-(dimethylcarbamoyl)tetrahydro-2H-pyran-3-yl]-4,4-dimethyl-2″-oxo-1″,2″-dihydrodispiro[cyclohexane-1,2′-pyrrolidine-3′,3″-pyrrolo[2,3-b]pyridine]-5′-carboxamide] | 1 to 50

Second part, the molecule after the results:

IC50 [nM] | Compound
1 to 50 | COCCN(C)C(=O)[C@@H]1CC[C@@H](NC(=O)[C@@H]2NC3(CC(CF)(CF)C3)[C@@]3(C(=O)Nc4cc(Cl)ccc43)[C@H]2c2cccc(Cl)c2F)CO1 [Example 139, (3′R, 4′S,5′R)-6″-chloro-4′-(3-chloro-2-fluorophenyl)-3,3-bis(fluoromethyl)-N-[(3R,6S)-6-[(2-methoxyethyl)(methyl)carbamoyl]tetrahydro-2H-pyran-3-yl]-2″-oxo-1″,2″-dihydrodispiro[cyclobutane-1,2′-pyrrolidine-3′,3″-indole]-5′-carboxamide]
1 to 50 | CC1(C)CCC2(CC1)N[C@@H](C(=O)N[C@@H]1CC[C@@H](C(=O)NC3CC3)OC1)[C@H](c1ccnc(Cl)c1F)[C@]21C(=O)Nc2nc(Cl)ccc21 [Example 102, (3′R, 4′S,5′R)-6″-chloro-4′-(2-chloro-3-fluoropyridin-4-yl)-N-[(3R,6S)-6-(cyclopropylcarbamoyl)tetrahydro-2H-pyran-3-yl]-4,4-dimethyl-2″-oxo-1″,2″-dihydrodispiro[cyclohexane-1,2′-pyrrolidine-3′,3″-pyrrolo[2,3-b]pyridine]-5′-carboxamide]
50 to 100 | NC(=O)C[C@@H]1CC[C@@H](NC(=O)[C@@H]2NC3(CC(CF)(CF)C3)[C@@]3(C(=O)Nc4cc(Cl)ccc43)[C@H]2c2cccc(Cl)c2F)CO1 [Example 149, (3′R, 4′S,5′R)—N-[(3R,6S)-6-(2-amino-2-oxoethyl)tetrahydro-2H-pyran-3-yl]-6″-chloro-4′-(3-chloro-2-fluorophenyl)-3,3-bis(fluoromethyl)-2″-oxo-1″,2″-dihydrodispiro[cyclobutane-1,2′-pyrrolidine-3′,3″-indole]-5′-carboxamide]
50 to 100 | CC1(C)CCC2(CC1)N[C@@H](C(=O)N[C@@H]1CC[C@@H](c3ncon3)OC1)[C@H](c1ccnc(Cl)c1)[C@]21C(=O)Nc2cc(Cl)ccc21 [Example 63, (3′R,4′R,5′R)-6″-chloro-4′-(2-chloropyridin-4-yl)-4,4-dimethyl-N-[(3R,6S)-6-(1,2,4-oxadiazol-3-yl)tetrahydro-2H-pyran-3-yl]-2″-oxo-1″,2″-dihydrodispiro[cyclohexane-1,2′-pyrrolidine-3′,3″-indole]-5′-carboxamide]
1 to 50 | C[C@H]1O[C@H](CO)CC[C@H]1NC(=O)[C@@H]1NC2(CCC(C)(C)CC2)[C@@]2(C(=O)Nc3cc(Cl)ccc32)[C@H]1c1ccnc(Cl)c1F [Example 105, (3′R, 4′S,5′R)-6″-chloro-4′-(2-chloro-3-fluoropyridin-4-yl)-N-[(2R,3R,6S)-6-(hydroxymethyl)-2-methyltetrahydro-2H-pyran-3-yl]-4,4-dimethyl-2″-oxo-1″,2″-dihydrodispiro[cyclohexane-1,2′-pyrrolidine-3′,3″-indole]-5′-carboxamide]
